Data published in patent US20100080757A1, “METHOD OF DETECTING ABNORMAL TISSUE” (priority 2005, published 2010).

Key:
hepatic artery = assay: Hepatic artery blood flow after intravenous acetazolamide; format: in vivo; settings: 100 mg/kg intravenously; for Blood flow in the hepatic artery: before about 2.8 ml/min
Source text: The amount of vasoactive agent administered to the subject to cause a noticeable increase or decrease in blood flow to the tissue of interest will depend on the specific agent administered to the subject.

VX2 tumor = assay: Functional CT perfusion before and after acetazolamide, tumor peripheral rim; format: in vivo, New Zealand White rabbits; settings: peripheral rim of untreated tumor, day 28; acetazolamide 50 mg/kg IV; mean±SE
Source text: (§1) All animal procedures were approved by the Institutional Animal Care and Use Committee at Case Western Reserve University. The VX2 tumor, a xenograft hepatoma model used frequently in radiological studies, was donated by S, Nahum Goldberg MD, (Beth Israel Medical Center, Boston, Mass.). Tumor was initiated in livers of 5 male New Zealand White rabbits weighing 3 kg (Covance, Princeton, N.J.) using methods described previously. The tumor was first propagated in the thigh of a donor rabbit, where a suspension of tumor cells was injected intramuscularly into one thigh. The tumor was grown until the palpated size reached approximately 1 cm^3 and was harvested from anesthetized animals using sterile techniques. Pieces of the tumor (4 mm^3) were cut, placed in 10% DMSO in pure calf's serum, and stored in liquid nitrogen.
(§2) For implantation in the liver, frozen tumor was rapidly thawed and washed. Rabbits were anesthetized using a combination of xylazine (5 mg/kg), ketamine (50 mg/kg), acepromazine (2 mg/kg) and atropine (0.2 mg/kg). The abdomen was shaved and cleaned, and the liver was exposed. A piece of tumor was then inserted into the liver parenchyma and the incisions were closed. During recovery, all animals received Buprenex (0.5 mg/kg) for pain management and a subcutaneous injection of 25 ml of 0.9% saline. Additional Buprenex and saline were given as needed.
(§3) Liver perfusion maps were created 28 days after initiation of the tumor by tracking contrast enhancement on eight sequential CT images (acquired on the Mx8000 IDT, Philips Medical scanner) before and after IV injection of acetazolamide. During each CT exam, first an unenhanced baseline scan was carried out. […]
(§4) A CT perfusion software package available from the scanner manufacturer was used for all perfusion measurements. […] Arterial and portal perfusion were calculated by measuring the slope of the time-density curve before (arterial) and after (venous) peak splenic enhancement and normalizing by the vascular input. A mean percent change in perfusion before and after CAI injection was calculated. […]

normal liver = assay: Functional CT perfusion before and after acetazolamide, normal liver; format: in vivo, New Zealand White rabbits; settings: acetazolamide 50 mg/kg IV, mean±SE
Source text: as §1, §2, §3, §4

small hepatoma = assay: MRI perfusion study, baseline and AZ enhanced; format: in vivo
Source text: FIGS. 7(a-b) are plots illustrating MRI perfusion study with the solid line showing flow in a small hepatoma and the dotted line showing flow in the normal parenchyma. FIG. 7a illustrates a baseline perfusion study showing quicker and higher enhancement of tumor vs normal liver.

[1] = test system: inflammatory pseudotumor (benign liver lesion); assay: Contrast-enhanced CT before and after acetazolamide in a biopsy patient; format: in vivo, Humans
Procedure: FIG. 10 is a plot illustrating CT perfusion analysis of a biopsy proven inflammatory pseudotumor before and after acetazolamide (AZ) administration (AZ 250 mg+50 mL Optiray 320).
Several preliminary studies have been carried out using a protocol approved by the Institutional Review Board (IRB) of University Hospitals of Cleveland (FIGS. 10-11). One patient undergoing routine biopsy was screened using a pre- and post-acetazolamide injection contrast-enhanced CT scans. Following the scans, a biopsy of the tissue was taken and sent for routine histological analysis. On the image data, standard region of interest (ROI) analysis was used to obtain signal intensity values (in Hounsfield units or HU) over 600 seconds in normal liver and the mass. […] Our general hypothesis is that normal vessels either in normal liver or benign lesions respond to the vasodilatation, so the decrease in conspicuity results from dilatation of both vessel sites. […] This was confirmed by histological diagnosis. A patient with a suspected recurrent tumor underwent a similar protocol as above. Again, on the baseline scan, the lesion enhances less than the normal liver. […] Instead of creating a “steal”, the flow increases flow in the lesion indicating it has normal vessels consistent with benign inflammation. Again, the results were confirmed with CT-guided biopsy.

[2] = test system: suspected recurrent tumor in liver; assay: MR of suspected recurrent liver tumor without and after Diamox; format: in vivo, Humans; settings: post Diamox scan vs baseline scan; lesion confirmed benign inflammation
Source text: FIGS. 11(a-c) are MR of suspected recurrent tumor in liver without (A) and after (B) vasodilator (Diamox), and image-guided biopsy confirmation (C). In A and B, the solid line corresponds to the lesion and the “dashed” line corresponds to the normal liver.
Several preliminary studies have been carried out using a protocol approved by the Institutional Review Board (IRB) of University Hospitals of Cleveland (FIGS. 10-11). One patient undergoing routine biopsy was screened using a pre- and post-acetazolamide injection contrast-enhanced CT scans. Following the scans, a biopsy of the tissue was taken and sent for routine histological analysis. On the image data, standard region of interest (ROI) analysis was used to obtain signal intensity values (in Hounsfield units or HU) over 600 seconds in normal liver and the mass. […] Our general hypothesis is that normal vessels either in normal liver or benign lesions respond to the vasodilatation, so the decrease in conspicuity results from dilatation of both vessel sites. […] This was confirmed by histological diagnosis. A patient with a suspected recurrent tumor underwent a similar protocol as above. Again, on the baseline scan, the lesion enhances less than the normal liver. […] Instead of creating a “steal”, the flow increases flow in the lesion indicating it has normal vessels consistent with benign inflammation. […]

liver = settings: Taki et al.; without systemic effects; cited from earlier work
kidney = settings: Taki et al.; without systemic effects; cited from earlier work
woodchuck hepatoma = assay: FDG PET uptake curves with and without phenylephrine; format: in vivo; settings: PET with FDG and phenylephrine vs baseline FDG alone
Source text: FIG. 8 is a plot illustrating FDG uptake curves in woodchuck hepatoma from two PET studies.

lung cancer = assay: FDG PET of lung cancer before and after oral pseudoephedrine; format: in vivo; settings: after oral pseudoephedrine; baseline SUV 4.8
Source text: FIGS. 9(a-b) are baseline CT (A) and corresponding PET (B) images of lung cancer. FIGS. 9(c-d) are images illustrating Tumor after oral pseudoephedrine. The tumor has not changed size on CT but has increased PET signal. SUV increased from 4.8 to 8.8, presumably due to increased blood flow to tumor and capture of FDG.

normal prostate vessels = assay: DCE MRI of the normal prostate with vasoactive drugs; format: in vivo, person
Procedure: A person with no history of prostate cancer and normal PSA, volunteered for multiple DCE MRI exams of the prostate to evaluate vasoactive modulation of the normal blood flow. Three separate examinations were performed several weeks apart. The studies were performed on a Siemens 1.5T Symphony scanner. The DCE MRI examination included, Siemens's tfiperf, (inversion fisp) sequence. TR=3000, TE=1.27, TI=400 flip angle=50. Gadolinium Veresetamide […], injection at 2 cc/sec for a total of 20 cc. Images were obtained every 3 seconds for a total period of 5 minutes and every minute thereafter for 15 minutes.
All three studies were performed with identical MRI sequences and parameters. The first study was performed without a vasoactive drug but the second and third study were repeated with administration of a vasoactive drug, silfenadil or pseudoephedrine. […] The third DCE MRI was performed identical to the second study with the oral administration of 25 mg of silfenadil one hour before the study, and the administration of 60 mg of pseudoephedrine 20 minutes preceding the gadolinium injection. The absorption rate of each drug is quite predictable according to the literature so the initial part of the study performed before the pseudoephedrine was vasodilated and the subsequent study had vasodilator combined with a vasoconstrictor.
Data analysis was performed using ANALYZE data management software (Analyze Direct, Inc., Lenexa, Kans., 66215, USA) and Excel (Microsoft, Seattle, Wash.).
Data graphs were normalized to the blood flow of the iliac artery. The data was acquired during the five minute period following intravenous gadolinium injection and thereby provides a semiquantitative assessment of blood flow characteristics, see below data discussion.

[3] = between 21 seconds and 72 seconds, 25 mg oral one hour prior
[4] = gadolinium after sildenafil, FIG. 13 legend

CC(=O)Nc1nnc(S(N)(=O)=O)s1 [acetazolamide]
Increase in the blood flow through the hepatic artery (hepatic artery): about 18% | Blood flow in the hepatic artery (hepatic artery; after about 10 minutes): about 3.1 ml/min | Blood flow in the hepatic artery (hepatic artery; after about 20 minutes): about 3.3 ml/min | Change in arterial perfusion (VX2 tumor): −31±9% | Change in total perfusion (VX2 tumor): −30±7% | Change in venous perfusion (VX2 tumor): −20±12% | Change in arterial perfusion (normal liver): −3±33% | Change in total perfusion (normal liver): 41±18% | Change in venous perfusion (normal liver): 31±18% | Enhancement of tumor vs normal liver (small hepatoma): decrease in enhancement of the tumor compared to the normal liver | Conspicuity ([1]; after AZ injection (AZ 250 mg), 32 HU before, benign lesion): 15 HU | Blood flow / signal intensity ([1]; post-acetazolamide contrast-enhanced CT, normal liver and mass): increases in the normal liver and in the mass | Enhancement of the lesion [2]: increases relative to the normal liver | Increase in blood flow to the liver (liver): 75+/−36% | Increase in blood flow to the kidney (kidney): 33+/−11%

CNC[C@H](O)c1cccc(O)c1 [phenylephrine]
FDG uptake in lesion (woodchuck hepatoma): increased uptake

CN[C@@H](C)[C@@H](O)c1ccccc1 [pseudoephedrine]
SUV (FDG PET signal of tumor) (lung cancer): 8.8 | Reduction in the enhancement (normal prostate vessels; after 14 minutes, pseudoephedrine 60 mg oral on top of silfenadil 25 mg oral): about 20% | Intensity in the equilibration phase (normal prostate vessels; at 14 minutes, pseudoephedrine 60 mg oral after Sildenafil 25 mg oral): definite decrease in intensity

CCCc1nn(C)c2c(=O)[nH]c(-c3cc(S(=O)(=O)N4CCN(C)CC4)ccc3OCC)nc12 [sildenafil]
Enhancement of the prostate gland on MRI image (normal prostate vessels; after sildenafil 50 mg and gadolinium, vs study without Viagra (FIG. 16)): greater enhancement of the gland | Increase of lateral lobe enhancement vs baseline study (normal prostate vessels; [3]): 78% | Increase of medial lobe enhancement vs baseline study (normal prostate vessels; [3]): 73% | Enhancement greater than the enhanced undilated study, medial lobe (normal prostate vessels; [4]): 78% | Maximum enhancement greater than the enhanced, undilated study, lateral lobe (normal prostate vessels; [4]): 73% | Increase of enhancement curve vs baseline enhancement curve (normal prostate vessels; throughout the entire scan period of 5 minutes (300 seconds), 25 mg oral one hour prior): more than 70%
